{"source": "patent US8460644B2", "about": "“Synergistic mixed poloxamer systems for the solubilisation of drugs” (IS Pharmaceuticals Limited, priority 2001, dated 2013)", "key": {"[1]": {"experiment": "Maximum additive concentration (MAC) and degree of synergistic solubilisation in aqueous P407+P188 mixtures", "type": "physicochemical", "protocol": "The maximum additive concentration (MAC) and degree of synergistic solubilisation was determined for a selection of water insoluble and sparingly soluble actives in aqueous P407+P188 mixtures.\nFor each active, the MAC was determined in the following aqueous poloxamer solutions:\nAs an aid to evaluating the level of synergistic solubilisation present within the system, the experimental data given in FIGS. 1-3 also includes the calculated MAC's of the systems that would be expected if the poloxamers comprising the mixture were solubilising independently and the overall MAC were simply the sum of the individual MAC's for the two components or admixture."}, "[2]": {"conditions": "cited from earlier work"}, "[3]": {"conditions": "3% w/v P407 + 7% w/v P188 in water"}, "[4]": {"conditions": "7% w/v P407 + 3% w/v P188 in water"}}, "note": "Like-named read-outs stand apart in the source and are kept apart here."}
{"smiles": "Cc1ccc(C(C)C)cc1O", "note": "[Carvacrol, 2-methyl-5-(1-methylethyl)phenol]", "values": [{"measurement": "synergistic ratio, MACexperimental/MACadmixture", "setting": "[1]; [3]", "result": 2.1}, {"measurement": "synergistic ratio, MACexperimental/MACadmixture", "setting": "[1]; [4]", "result": 1.8}]}
{"smiles": "CCCCCCCCCC(=O)OCCN1CCN(CCCN2c3ccccc3Sc3ccc(C(F)(F)F)cc32)CC1", "note": "[Fluphenazine decanoate, 2-{4-[3-(2-trifluoromethyl-phenothiazin-10-yl)propyl]piperazin-1-yl}ethyl decanoate]", "values": [{"measurement": "synergistic ratio, MACexperimental/MACadmixture", "setting": "[1]; [3]", "result": 3.6}, {"measurement": "synergistic ratio, MACexperimental/MACadmixture", "setting": "[1]; [4]", "result": 1.6}]}
{"smiles": "CCCCCCC(=O)OCCN1CCN(CCCN2c3ccccc3Sc3ccc(C(F)(F)F)cc32)CC1", "note": "[Fluphenazine enanthate, 2-{4-[3-(2-trifluoromethylphenothiazin-10-yl)propyl]piperazin-1-yl}ethyl heptanoate]", "values": [{"measurement": "synergistic ratio, MACexperimental/MACadmixture", "setting": "[1]; [3]", "result": 2.5}, {"measurement": "synergistic ratio, MACexperimental/MACadmixture", "setting": "[1]; [4]", "result": 1.8}]}
{"smiles": "CCN(CC)CC(=O)Nc1c(C)cccc1C", "note": "[Lidocaine, 2-diethylamino-2′,6′-acetoxylidide]", "values": [{"measurement": "synergistic ratio, MACexperimental/MACadmixture", "setting": "[1]; [3]", "result": 1.5}, {"measurement": "synergistic ratio, MACexperimental/MACadmixture", "setting": "[1]; [4]", "result": 1.4}]}
{"smiles": "CN1C(=O)CN=C(c2ccccc2)c2cc(Cl)ccc21", "note": "[diazepam]", "values": [{"measurement": "incidence of pain on injection", "setting": "[2]; formulated in a mixture of propylene glycol and water", "result": 37, "unit": "%"}, {"measurement": "incidence of pain on injection", "setting": "[2]; formulated in an emulsion form", "result": 0, "unit": "%"}]}
